Assay results reported in patent US10183938B2, “Geminal substituted quinuclidine amide compounds as agonists of α-7 nicotonic acetylcholine receptors” (AXOVANT SCIENCES GMBH, priority 2014, dated 2019).
Structures can show the parent of a compound that is named as a salt.

target: human α7 nAChRs transiently expressed in Xenopus laevis oocytes (Homo sapiens (Human), UniProt P36544); experiment: Oocyte electrophysiology screen (TEVC); format: cell-based; conditions: 0.01 mM test compound, peak current relative to 0.2 mM ACh
Method: Oocyte Electrophysiology Screen (% ACh @ 10 μM Oocyte)
The Oocyte Electrophysiology Screen studies were performed under contract by HiQScreen Geneva, Switzerland. All experiments were carried out at human α7 nAChRs transiently expressed in Xenopus laevis oocytes using the method of cDNA expression. Currents evoked by acetylcholine or other agonist ligands were recorded using the standard two-electrode voltage-clamp configuration (TEVC). X. laevis oocytes were prepared and injected using standard procedures. Briefly, ovaries were harvested from X. laevis females that were deeply anesthetized and pithed following the animal rights rule from the Geneva canton. A small piece of ovary was isolated for immediate preparation while the remaining part was placed at 4° C. in a sterile Barth solution containing in mM: NaCl 88, KCl 1, NaHCO3 2.4, HEPES 10, MgSO4.7H2O 0.82, Ca(NO3)2.4H2O 0.33, CaCl2.6H2O 0.41, at pH 7.4, and supplemented with 20 μg/mL of kanamycin, 100 unit/mL penicillin and 100 μg/mL streptomycin. […] Cells were held at −80 mV. Data were filtered at 10 Hz, captured at 100 Hz and analyzed using proprietary data acquisition and analysis software running under Matlab (Mathworks Inc.).
Experimental Protocol and Analysis
After establishing a baseline transmembrane current, acetylcholine (ACh) was applied for 5 seconds at a concentration of 0.2 mM to establish a control ACh-evoked current response. Following a wash period of 90 s in OR2 medium (free of ACh), cells were then exposed for 30 s to the test compound applied at 0.01 mM. The same reference ACh test pulse was immediately given at the end of the compound exposure and again after 90 s of recovery in OR2 Medium (free of ACh or test compound). All data were determined in triplicate. The response evoked by the test compound was expressed as a percentage of that evoked by ACh: Response (% ACh)=100×(Itest/IACh) where Itest is the peak inward current measured during exposure to 0.01 mM of test compound and IACh is the peak inward current measured in the presence of ACh.

human α7 nAChRs transiently expressed in Xenopus laevis oocytes, sequence (P36544 23-502 limits assumed): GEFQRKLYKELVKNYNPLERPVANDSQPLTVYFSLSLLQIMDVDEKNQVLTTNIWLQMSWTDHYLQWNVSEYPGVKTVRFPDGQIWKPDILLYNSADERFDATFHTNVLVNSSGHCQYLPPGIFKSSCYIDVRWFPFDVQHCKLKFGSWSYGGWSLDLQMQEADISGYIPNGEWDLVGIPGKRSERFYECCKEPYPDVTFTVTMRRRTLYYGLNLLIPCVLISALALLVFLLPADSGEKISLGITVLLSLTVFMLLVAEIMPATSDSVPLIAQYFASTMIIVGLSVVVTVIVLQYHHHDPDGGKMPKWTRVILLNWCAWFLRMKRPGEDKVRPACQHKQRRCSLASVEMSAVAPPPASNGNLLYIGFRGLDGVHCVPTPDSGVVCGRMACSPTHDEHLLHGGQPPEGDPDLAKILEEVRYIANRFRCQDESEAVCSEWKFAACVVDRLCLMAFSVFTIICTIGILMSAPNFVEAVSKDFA

Going from CC1(C)[C@H](NC(=O)c2ccc3cc[nH]c3c2)C2CCN1CC2 [(R)-26, (R)—N-(2,2-dimethylquinuclidin-3-yl)-1H-indole-6-carboxamide hydrochloride] to CC1(C)[C@H](NC(=O)c2ccc3ccoc3c2)C2CCN1CC2 [(R)-31, (R)—N-(2,2-dimethylquinuclidin-3-yl)benzofuran-6-carboxamide hydrochloride], the “% ACh @ 10 μM Oocyte” value falls from 687 % ACh to 294 % ACh.

CC1(C)[C@H](NC(=O)c2cnn3ncccc23)C2CCN1CC2 [(R)-27, (R)—N-(2,2-dimethylquinuclidin-3-yl)pyrazolo[1,5-b]pyridazine-3-carboxamide hydrochloride] and O=C(N[C@@H]1C2CCN(CC2)C12CC2)c1cnn2ncccc12 [(R)-80, (R)—N-(1′-azaspiro[cyclopropane-1,2′-bicyclo[2.2.2]octan]-3′-yl)pyrazolo[1,5-b]pyridazine-3-carboxamide hydrochloride] are the same in “% ACh @ 10 μM Oocyte” value: 0 % ACh for the first, 0 % ACh for the second.

Going from CC1(C)[C@H](NC(=O)c2nc3ccccc3s2)C2CCN1CC2 [(R)-29, (R)—N-(2,2-dimethylquinuclidin-3-yl)benzo[d]thiazole-2-carboxamide hydrochloride] to O=C(N[C@@H]1C2CCN(CC2)C12CC2)c1nc2ccccc2s1 [(R)-82, (R)—N-(1′-azaspiro[cyclopropane-1,2′-bicyclo[2.2.2]octan]-3′-yl)benzo[d]thiazole-2-carboxamide hydrochloride], the “% ACh @ 10 μM Oocyte” value falls from 448 % ACh to 239 % ACh.

First: Cc1nc2cc(C(=O)N[C@@H]3C4CCN(CC4)C3(C)C)ccc2o1 [(R)-32, (R)—N-(2,2-dimethylquinuclidin-3-yl)-2-methylbenzo[d]oxazole-5-carboxamide]
Second: Cc1nc2ccc(C(=O)N[C@@H]3C4CCN(CC4)C3(C)C)cc2o1 [(R)-33, (R)—N-(2,2-dimethylquinuclidin-3-yl)-2-methylbenzo[d]oxazole-6-carboxamide]
The “% ACh @ 10 μM Oocyte” value of the first is higher: 61 % ACh for the first, 6 % ACh for the second.

First: Cc1nc2cc(C(=O)N[C@@H]3C4CCN(CC4)C3(C)C)ccc2s1 [(R)-34, (R)—N-(2,2-dimethylquinuclidin-3-yl)-2-methylbenzo[d]thiazole-5-carboxamide hydrochloride]
Second: Cc1nc2ccc(C(=O)N[C@@H]3C4CCN(CC4)C3(C)C)cc2s1 [(R)-35, (R)—N-(2,2-dimethylquinuclidin-3-yl)-2-methylbenzo[d]thiazole-6-carboxamide hydrochloride]
The “% ACh @ 10 μM Oocyte” value of the first is higher: 159 % ACh for the first, 6 % ACh for the second.

Going from CC1(C)[C@H](NC(=O)c2ccc3occc3n2)C2CCN1CC2 [(R)-37, (R)—N-(2,2-dimethylquinuclidin-3-yl)furo[3,2-b]pyridine-5-carboxamide hydrochloride] to O=C(N[C@@H]1C2CCN(CC2)C12CC2)c1ccc2occc2n1 [(R)-90, (R)—N-(1′-azaspiro[cyclopropane-1,2′-bicyclo[2.2.2]octan]-3′-yl)furo[3,2-b]pyridine-5-carboxamide hydrochloride], the “% ACh @ 10 μM Oocyte” value falls from 5 % ACh to 3 % ACh.

Compared with Cc1cc2cc(C(=O)N[C@@H]3C4CCN(CC4)C3(C)C)ccc2o1 [(R)-38, (R)—N-(2,2-dimethylquinuclidin-3-yl)-2-methylbenzofuran-5-carboxamide hydrochloride], CC1(C)[C@H](NC(=O)c2ccc3oc(Cl)cc3c2)C2CCN1CC2 [(R)-39, (R)-2-chloro-N-(2,2-dimethylquinuclidin-3-yl)benzofuran-5-carboxamide hydrochloride] is higher in “% ACh @ 10 μM Oocyte” value: 339 % ACh for the first, 697 % ACh for the second.

First: Cc1coc2ccc(C(=O)N[C@@H]3C4CCN(CC4)C3(C)C)cc12 [(R)-40, (R)—N-(2,2-dimethylquinuclidin-3-yl)-3-methylbenzofuran-5-carboxamide hydrochloride]
Second: CC1(C)[C@H](NC(=O)c2ccc3occ(Cl)c3c2)C2CCN1CC2 [(R)-41, (R)-3-chloro-N-(2,2-dimethylquinuclidin-3-yl)benzofuran-5-carboxamide hydrochloride]
The “% ACh @ 10 μM Oocyte” value of the first is higher: 517 % ACh for the first, 384 % ACh for the second.

Cn1cnc2cc(C(=O)N[C@@H]3C4CCN(CC4)C3(C)C)ccc21 [(R)-42, (R)—N-(2,2-dimethylquinuclidin-3-yl)-1-methyl-1H-benzo[d]imidazole-5-carboxamide hydrochloride] and Cn1cnc2ccc(C(=O)N[C@@H]3C4CCN(CC4)C34CC4)cc21 [(R)-96, (R)-1-methyl-N-(1′-azaspiro[cyclopropane-1,2′-bicyclo[2.2.2]octan]-3′-yl)-1H-benzo[d]imidazole-6-carboxamide hydrochloride] are the same in “% ACh @ 10 μM Oocyte” value: 0 % ACh for the first, 0 % ACh for the second.

CC1(C)[C@H](NC(=O)c2cc3ccc(N4CCOCC4)cc3s2)C2CCN1CC2 [(R)-44, (R)—N-(2,2-dimethylquinuclidin-3-yl)-6-morpholinobenzo[b]thiophene-2-carboxamide hydrochloride] and CC1(C)[C@H](NC(=O)c2cc3ccc(N4CCC(F)(F)CC4)cc3s2)C2CCN1CC2 [(R)-45, (R)-6-(4,4-difluoropiperidin-1-yl)-N-(2,2-dimethylquinuclidin-3-yl)benzo[b]thiophene-2-carboxamide hydrochloride] are the same in “% ACh @ 10 μM Oocyte” value: 1 % ACh for the first, 1 % ACh for the second.

CC(C)Oc1ccc2cc(C(=O)N[C@@H]3C4CCN(CC4)C3(C)C)sc2c1 [(R)-47, (R)—N-(2,2-dimethylquinuclidin-3-yl)-6-isopropoxybenzo[b]thiophene-2-carboxamide hydrochloride] and CC(C)Oc1ccc2cc(C(=O)N[C@@H]3C4CCN(CC4)C34CC4)sc2c1 [(R)-102, (R)-6-isopropoxy-N-(1′-azaspiro[cyclopropane-1,2′-bicyclo[2.2.2]octan]-3′-yl)benzo[b]thiophene-2-carboxamide hydrochloride] are the same in “% ACh @ 10 μM Oocyte” value: 1 % ACh for the first, 1 % ACh for the second.

First: CC1(C)[C@H](NC(=O)c2cc3ccc(N)cc3s2)C2CCN1CC2 [(R)-49, (R)-6-amino-N-(2,2-dimethylquinuclidin-3-yl)benzo[b]thiophene-2-carboxamide hydrochloride]
Second: CC1(C)[C@H](NC(=O)c2cc3ccc(C4CCOCC4)cc3s2)C2CCN1CC2 [(R)-50, (R)—N-(2,2-dimethylquinuclidin-3-yl)-6-(tetrahydro-2H-pyran-4-yl)benzo[b]thiophene-2-carboxamide hydrochloride]
The “% ACh @ 10 μM Oocyte” value of the first is higher: 576 % ACh for the first, 0 % ACh for the second.

Going from Cl.O=C(N[C@@H]1C2CCN(CC2)C12CC2)c1cc2c(cn1)OCCO2 [(R)-76, (R)—N-(1′-azaspiro[cyclopropane-1,2′-bicyclo[2.2.2]octan]-3′-yl)-2,3-dihydro-[1,4]dioxino[2,3-c]pyridine-7-carboxamide hydrochloride] to O=C(N[C@@H]1C2CCN(CC2)C12CC2)c1cnc2occc2c1 [(R)-89, (R)—N-(1′-azaspiro[cyclopropane-1,2′-bicyclo[2.2.2]octan]-3′-yl)furo[2,3-b]pyridine-5-carboxamide hydrochloride], the “% ACh @ 10 μM Oocyte” value falls from 129 % ACh to 0 % ACh.

Compared with O=C(N[C@@H]1C2CCN(CC2)C12CC2)c1cc2cccnc2s1 [(R)-81, (R)—N-(1′-azaspiro[cyclopropane-1,2′-bicyclo[2.2.2]octan]-3′-yl)thieno[2,3-b]pyridine-2-carboxamide hydrochloride], O=C(N[C@@H]1C2CCN(CC2)C12CC2)c1cc2ccc(-n3ccnn3)cc2s1 [(R)-98, (R)—N-(1′-azaspiro[cyclopropane-1,2′-bicyclo[2.2.2]octan]-3′-yl)-6-(1H-1,2,3-triazol-1-yl)benzo[b]thiophene-2-carboxamide hydrochloride] is lower in “% ACh @ 10 μM Oocyte” value: 449 % ACh for the first, 3 % ACh for the second.

Going from Cc1nc2cc(C(=O)N[C@@H]3C4CCN(CC4)C34CC4)ccc2s1 [(R)-87, (R)-2-methyl-N-(1′-azaspiro[cyclopropane-1,2′-bicyclo[2.2.2]octan]-3′-yl)benzo[d]thiazole-5-carboxamide hydrochloride] to Cc1nc2ccc(C(=O)N[C@@H]3C4CCN(CC4)C34CC4)cc2s1 [(R)-88, (R)-2-methyl-N-(1′-azaspiro[cyclopropane-1,2′-bicyclo[2.2.2]octan]-3′-yl)benzo[d]thiazole-6-carboxamide hydrochloride], the “% ACh @ 10 μM Oocyte” value falls from 341 % ACh to 133 % ACh.

Going from Cc1coc2ccc(C(=O)N[C@@H]3C4CCN(CC4)C34CC4)cc12 [(R)-93, (R)-3-methyl-N-(1′-azaspiro[cyclopropane-1,2′-bicyclo[2.2.2]octan]-3′-yl)benzofuran-5-carboxamide hydrochloride] to O=C(N[C@@H]1C2CCN(CC2)C12CC2)c1cc2ccc(N3CCC(F)(F)CC3)cc2s1 [(R)-100, (R)-6-(4,4-difluoropiperidin-1-yl)-N-(1′-azaspiro[cyclopropane-1,2′-bicyclo[2.2.2]octan]-3′-yl)benzo[b]thiophene-2-carboxamide hydrochloride], the “% ACh @ 10 μM Oocyte” value falls from 516 % ACh to 1 % ACh.
